Data reported in patent US20160221948A1, “NITROGEN-CONTAINING SATURATED HETEROCYCLIC COMPOUND” (SUMITOMO CHEMICAL COMPANY, LIMITED, priority 2013, published 2016).
pEC50: −log10 of the molar value.

Molecular target: human SSTR4 (Homo sapiens, UniProt P31391)
Assay: Evaluation of agonist activities using human SSTR4-stably expressing cells (aequorin luminescence)
Assay type: cell-based
Design: expressed in transfected cells; host or cells: HEK293
Conditions: for pEC50: luminescence signal, 1 μmol/L somatostatin taken as 100%; for SSTR4 agonist activity compared with other compounds: Tables 25 to 27
Description: Evaluation of Agonist Activities Using Cells that stably expressing human-derived SSTR4 (human SSTR4-stably expressing cells)
(1) Human SSTR4-Stably Expressing Cells
Human SSTR4-stably expressing cells were prepared, and cultured. Specifically, HEK293 cells, human kidney-derived cells, were used as host cells. By introducing pcDNA3.1 (cat. No. V79020, invitrogen, Carlsbad, Calif., USA) to which human SSTR gene was inserted into HEK293 cells, human SSTR4-stably expressing cell line was obtained. For selection, G418 (cat. No. 16513-84, Nacalai tesque, Japan) was used.
As the culture medium, D-MEM medium (cat. No. 11995, GIBCO, USA), containing 10% FBS and 200 μg/mL G418, was used, the culture was performed in a 225 cm^2 flask (cat. No. 11-006-010, Iwaki, Japan).
At about 80% confluence, the cells were harvested by treating with 20-fold diluted 0.25% Trypsin-EDTA (cat. No. 35554-64, Nacalai, tesque, Japan). The harvested cells were prepared at a reaction medium composed of Hanks Buffer (cat. No. 14065-056, invitrogen, Carlsbad, Calif., USA)/20 mM Hepes (cat. No. 15630-080, invitrogen, Carlsbad, Calif., USA), and 0.1% BSA (cat. No. A7906, Sigma Aldrich, USA) to 70000 cells/mL. Gα16 and apoaequorin were transiently introduced to the harvested cells, and the cells were seeded to a 384 well plate (cat. No. 781090, Greiner, Germany) at about 2000 cells/30 μL/well. On the next day of cell seeding, Coelenterazine H (cat. No. S2011, Promega, USA) was added to each well (10 μL/well) to make a final concentration of 0.5 μmol/L, and the plate was centrifuged. Then, the plate was left at room temperature for 4 hours in shaded state.
(2) Preparation of Test Compounds
DMSO solution of each test compound having 1000-fold larger concentration than the final concentration was prepared. The DMSO solutions were made to have 10-fold concentration than the final concentration with Hanks/20 mmol/L Hepes/0.1% BSA.
(3) Evaluation of Agonist Activity
For detection of luminescence signal due to SSTR4-stimulation, FDSS7000 (manufactured by Hamamatsu Photonics K.K.) was used. To plates having cells and the luminescence substrate, solutions of test compounds were added, then each luminescence signal was measured for 90 seconds, and each relative luminescence unit (RLU) was calculated. Based on luminescence signal from the wells to which a 1 μmol/L somatostatin solution was added taken as 100%, agonist activity of each test compound was evaluated.

Chain of human SSTR4 (P31391 whole entry): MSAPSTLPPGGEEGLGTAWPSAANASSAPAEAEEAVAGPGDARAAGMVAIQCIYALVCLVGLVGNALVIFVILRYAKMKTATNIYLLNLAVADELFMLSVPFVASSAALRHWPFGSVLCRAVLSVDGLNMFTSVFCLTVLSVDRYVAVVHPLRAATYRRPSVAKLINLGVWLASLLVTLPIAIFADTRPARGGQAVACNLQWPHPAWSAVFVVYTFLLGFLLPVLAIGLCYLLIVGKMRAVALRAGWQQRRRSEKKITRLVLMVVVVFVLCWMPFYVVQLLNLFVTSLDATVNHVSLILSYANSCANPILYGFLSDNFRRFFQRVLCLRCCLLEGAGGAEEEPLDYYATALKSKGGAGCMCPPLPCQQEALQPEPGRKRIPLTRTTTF

Structure (SMILES)	pEC50	SSTR4 agonist activity compared with other compounds
CCc1ccccc1C(C)(C)NC(=O)[C@H]1CCCN(C)C1 [Example 76, (3S)—N-[2-(2-ethylphenyl)propane-2-yl]-1-methylpiperidine-3-carboxamide]	8.72	–
Cc1cccc(C(C)(C)NC(=O)[C@@H]2CC[C@H](C)N(C)C2)c1Cl (relative stereo) [Example 88]	8.12	–
CN1CCC[C@H](C(=O)NC(C)(C)c2ccccc2)C1 [Example 39]	< 7.00	–
CN1CCC[C@H](C(=O)NC(C)(C)c2cccc(Cl)c2Cl)C1 [Example 19, (3S)—N-[2-(2,3-dichlorophenyl)propane-2-yl]-1-methylpiperidine-3-carboxamide]	8.74	stronger SSTR4 agonist activity
CN1CCCC(C(=O)NC(c2cccc3ccccc23)C(F)(F)F)C1 (stereo not drawn) [Example 3]	7.90	–
CN1CCC[C@H](C(=O)NC(C)(C)c2cccc(Cl)c2F)C1 [Example 46]	7.67	–
CN1CCC[C@H](C(=O)NC(C)(C)c2cccnc2)C1 [Example 57]	< 7.00	–
CC(C)Cc1cc(Cl)ccc1C(C)(C)NC(=O)[C@H]1CCCN(C)C1 [Example 34]	< 7.00	–
CCC1CCC(C(=O)NC(C)(C)c2cccc(Cl)c2Cl)CN1C (stereo not drawn) [Example 102]	7.21	–
CN1CCC[C@H](C(=O)NC(C)(C)c2cccc(S(C)(=O)=O)c2)C1 [Example 62]	< 7.00	–
CN1CCC[C@H](C(=O)NC(C)(C)c2ccncc2)C1 [Example 58]	< 7.00	–
CN1CCC[C@H](C(=O)NC(C)(C)c2ccccn2)C1 [Example 56]	< 7.00	–
Cc1ccc(C(C)(C)NC(=O)C2CCCN(C)C2)cc1C (stereo not drawn) [Example 6]	7.85	–
CC(C)N1CCCC(C(=O)NC(C)(C)c2cccc3ccccc23)C1 (stereo not drawn) [Example 119]	8.46	–
CN1CCC[C@H](C(=O)NC(C)(C)c2cccc(F)c2Cl)C1 [Example 71, (3S)—N-[2-(2-chloro-3-fluorophenyl)propane-2-yl]-1-methylpiperidine-3-carboxamide]	8.48	–
CCCCN1CCCC(C(=O)NC(C)(C)c2cccc3ccccc23)C1 (stereo not drawn) [Example 118]	7.26	–
CN1CC(C(=O)NC(C)(C)c2cccc(Cl)c2Cl)CC(F)(F)C1 (stereo not drawn) [Example 101]	7.47	–
Cc1ccc(C(C)(C)NC(=O)[C@H]2CCCN(C)C2)cc1 [Example 45]	7.07	–
CN1CCC[C@H](C(=O)NC(C)(C)c2ccc(F)cc2Cl)C1 [Example 72, (3S)—N-[2-(2-chloro-4-fluorohenyl)propane-2-yl]-1-methylpiperidine-3-carboxamide]	8.55	–
Cc1cc(Cl)ccc1C(C)(C)NC(=O)[C@H]1CCCN(C)C1 [Example 28]	7.91	–

Structure (SMILES)	pEC50	SSTR4 agonist activity compared with other compounds
Cc1cc(Cl)cc(C(C)(C)NC(=O)[C@H]2CCCN(C)C2)c1 [Example 29, (3S)—N-[2-(3-chloro-5-methylphenyl)propane-2-yl]-1-methylpiperidine-3-carboxamide]	8.28	–
CC1CC(C(=O)NC(C)(C)c2cccc(Cl)c2Cl)CN(C)C1 (stereo not drawn) [Example 100]	7.55	–
C[C@@H]1[C@@H](C(=O)NC(C)(C)c2cccc3ccccc23)CCCN1C (relative stereo) [Example 85]	8.82	stronger SSTR4 agonist activity
Cc1cccc(C(C)(C)NC(=O)[C@H]2CCCN(C)C2)c1 [Example 44]	7.55	–
CN1CC[C@H](C(=O)NC(C)(C)c2ccccc2Cl)C1 [Example 79]	7.36	–
CCN1CCCC(C(=O)NC(C)(C)c2cccc3ccccc23)C1 (stereo not drawn) [Example 111]	8.16	–
Cc1cc(C)cc(C(C)(C)NC(=O)[C@H]2CCCN(C)C2)c1 [Example 25]	7.80	–
COc1cccc(C(C)(C)NC(=O)[C@H]2CCCN(C)C2)c1 [Example 70]	< 7.00	–
CCCN1CCC[C@H](C(=O)NC(C)(C)c2cccc3ccccc23)C1 [Example 114]	8.21	–
Cc1cccc(C(C)(C)NC(=O)[C@H]2CCCN(C)C2)c1C [Example 23, (3S)—N-[2-(2,3-dimethylphenyl)propane-2-yl]-1-methylpiperidine-3-carboxamide]	8.13	–
Cc1cc(Cl)ccc1C(C)(C)NC(=O)C1CCCN(C)C1 (stereo not drawn) [Example 12, N-[2-(4-chloro-2-methylphenyl)propane-2-yl]-1-methylpiperidine-3-carboxamide]	8.01	–
CCc1ccc(C(C)(C)NC(=O)[C@H]2CCCN(C)C2)c(CC)c1 [Example 32, (3S)—N-[2-(2,4-diethylphenyl)propane-2-yl]-1-methylpiperidine-3-carboxamide]	8.40	–
CN1CC[C@@H](C(=O)NC(C)(C)c2ccccc2Cl)C1 [Example 80]	< 7.00	–
COc1cc(Cl)c(Cl)cc1C(C)(C)NC(=O)[C@H]1CCCN(C)C1 [Example 52]	8.92	stronger SSTR4 agonist activity
CN1CC(O)CC(C(=O)NC(C)(C)c2cccc3ccccc23)C1 (stereo not drawn) [Example 83]	8.13	–
CC(C)(NC(=O)[C@H]1CCCN(CCF)C1)c1cccc2ccccc12 [Example 113]	8.51	–
CC(C)(NC(=O)C1CCCN(CCF)C1)c1cccc2ccccc12 (stereo not drawn) [Example 112]	< 7.00	–
CN1CCC[C@H](C(=O)NC(C)(C)c2ccccc2S(C)(=O)=O)C1 [Example 64]	< 7.00	–
CN1CCC(C(=O)NC(C)(C)c2ccccc2)C1 (stereo not drawn) [Example 78]	< 7.00	–
CN1CCC[C@H](C(=O)NC(C)(C)c2ccccc2OC(F)F)C1 [Example 66]	7.69	–

Structure (SMILES)	pEC50	SSTR4 agonist activity compared with other compounds
CN1CCC[C@H](C(=O)NC(C)(C)c2ccccc2OC(F)(F)F)C1 [Example 60, (3S)—N-{2-[2-(trifluoromethoxy)phenyl]propane-2-yl}-1-methylpiperidine-3-carboxamide]	8.32	–
CN1CCC[C@H](C(=O)NC(C)(C)c2ccc(Cl)c(Cl)c2)C1 [Example 22]	7.96	–
C[C@@H]1CC[C@H](C(=O)NC(C)(C)c2cccc(Cl)c2Cl)CN1C (relative stereo) [Example 96]	7.93	–
CN1CCCC(C(=O)NC(C)(C)c2cccc(Cl)c2Cl)C1c1ccccc1 (stereo not drawn) [Example 98]	< 7.00	–
Cc1cc(Cl)cc(C(C)(C)NC(=O)C2CCCN(C)C2)c1 (stereo not drawn) [Example 11]	8.08	–
C[C@@H]1CC[C@@H](C(=O)NC(C)(C)c2cccc(Cl)c2Cl)CN1C (relative stereo) [Example 95]	8.11	–
Cc1ccc(Cl)c(C(C)(C)NC(=O)[C@H]2CCCN(C)C2)c1 [Example 38, (3S)—N-[2-(2-chloro-5-methylphenyl)propane-2-yl]-1-methylpiperidine-3-carboxamide]	8.30	–
CN1CC[C@@H](c2ccccc2)[C@H](C(=O)NC(C)(C)c2cccc(Cl)c2Cl)C1 (relative stereo) [Example 106]	8.70	–
Cc1cccc(C(C)(C)NC(=O)C2CCCN(C)C2)c1C (stereo not drawn) [Example 8]	8.05	–
COC1CC(C(=O)NC(C)(C)c2cccc(Cl)c2Cl)CN(C)C1 (stereo not drawn) [Example 103]	7.50	–
Cc1c(Cl)cccc1C(C)(C)NC(=O)[C@@H]1CC[C@H](C)N(C)C1 (relative stereo) [Example 87]	8.03	–
CC[C@@H]1CC[C@@H](C(=O)NC(C)(C)c2cccc3ccccc23)CN1C (relative stereo) [Example 89]	7.95	–
CN1CCCC(C(=O)NC(C)(C)c2ccc(Cl)c(Cl)c2)C1 (stereo not drawn) [Example 10]	7.62	–
COc1ccc(Cl)cc1C(C)(C)NC(=O)[C@H]1CCCN(C)C1 [Example 51, (3S)—N-[2-(5-chloro-2-methoxylphenyl)propane-2-yl]-1-methylpiperidine-3-carboxamide]	8.30	–
Cc1cccc(C(C)(C)NC(=O)[C@H]2CCCN(C)C2)c1Cl [Example 26, (3S)—N-[2-(2-chloro-3-methylphenyl)propane-2-yl]-1-methylpiperidine-3-carboxamide]	8.66	stronger SSTR4 agonist activity
COC[C@@H]1CC[C@@H](C(=O)NC(C)(C)c2cccc3ccccc23)CN1C (relative stereo) [Example 104]	7.09	–
CN1CCC[C@H](C(=O)NC(C)(C)c2cccc(Cl)c2)C1 [Example 41]	7.89	–
Cc1ccc(C(C)(C)NC(=O)[C@H]2CCCN(C)C2)cc1Cl [Example 47, (3S)—N-[2-(3-chloro-4-methylphenyl)propane-2-yl]-1-methylpiperidine-3-carboxamide]	8.10	–
CSc1ccccc1C(C)(C)NC(=O)[C@H]1CCCN(C)C1 [Example 65]	8.21	–
